Type in all cases: in vivo
In one assay the test system is ICR male mice. Briefly: Open field test. Particulars: 60 minutes before testing. On the procedure:
This test is based on anxiety behaviors of rodents in the central area of an open field. When a mouse stayed in the central area for a longer period of time, it was deemed that there were more anti-stress, anti-depressant and anti-anxiety effects. ICR male mice (30 g to 35 g) were purchased from Orient Bio Korea Co. (Korea) and allowed to acclimatize for 1 week before being tested in a controlled animal facility (temperature 22±2° C., humidity 55±5%). When treatment began, the weight of the animals was 35±5% g. The test compound for oral administration was dissolved in 30% PEG400 and administered at a dose per body weight of 10 mL/kg 60 minutes before testing. The test compound for intraperitoneal administration was dissolved in 20% Tween80 and administered at a dose per body weight of 10 mL/kg 60 minutes before testing. The control group was provided with a corresponding vehicle. The open field was measured and analyzed by OPTO-VARIMEX instrument (Columbus Instruments, USA). The mouse was placed in the center of the open field, and its behavior was measured for 10 minutes. The open field was divided into 16 equal parts, and the middle area was established as the central area. Locomotor activity was measured using a spontaneous momentum (distance moved in cm), and measurement of anxiety behavior was obtained using the time spent in the central area as an index. In the open field experiment, when the time during which the mouse stayed in the central area was longer, it was evaluated that the symptoms of anxiety were alleviated, and when the time was shorter, the mouse was evaluated to have symptoms of anxiety (Reference; Prut L, Belzung C. 2003. The open field as a paradigm to measure the effects of drugs on anxiety-like behaviors: a review. Eur J Pharmacol. February 28; 463(1-3):3-33.).

Assay [1] has as its system rats that gave birth, chronic administration of corticosterone. Briefly: PPD (chronic CORT induced PPD model), forced swim test. Particulars: postpartum depression rat, 30 mg/kg, intraperitoneally 15 minutes before testing. The method, then: In order to confirm the effect on postpartum depression in rats, the forced swim test was conducted after chronic administration of corticosterone, a depression-causing substance, to rats that gave birth. The forced swim test causes an immobile state by forcing an animal to swim in a confined space. It reflects a state of despair giving up evading such a circumstance. Rats on the 15th day of pregnancy were purchased from Koatech (Korea) and allowed to acclimatize for 1 week before being tested in a controlled animal facility (temperature 22±2° C., humidity 55±5%). […] In the recorded videos, the time during which the animal placed its head on the water and remained still without movement was measured based on the remaining 4 minutes excluding the first 2 minutes. It was evaluated that the lower the value of the immobile posture time, the greater the anti-depressant action (Reference; S. Brummelte et al. Chronic corticosterone during pregnancy and affects maternal care, cell proliferation and depressive-like behavior in the dam. Hormones and Behavior 58 (2010) 769˜779, Porsolt R D, Le Pichon M, Jalfre M. 1997. Depression: a new animal model sensitive to anti-depressant treatments. Nature. April 21; 266(5604):730˜2.).
The result was shown as the standard error of measurement (SEM) of mean value±mean value. Behavioral data were analyzed by one-way ANOVA. […]

Another assay concerns Wistar male rats. Briefly: Forced swim test (rat, rFST). The following applies: for Immobile posture time (sec.)/4 minutes, Treatment: rat, administered orally 60 minutes before testing. On the procedure:
In order to determine the anti-depressant effect in rodents, the forced swim test was performed with rats and mice. The forced swim test causes an immobile state by forcing an animal to swim in a confined space. It reflects a state of despair giving up evading such a circumstance. ICR male mice (25 g to 30 g) and Wistar male rats (240 g to 260 g) were purchased from Samtako Bio Korea Co. (Korea) and allowed to acclimatize for 1 week before being tested in a controlled animal facility (temperature 22±2° C., humidity 55±5%). The test compound was dissolved in 20% Tween80 and administered orally 60 minutes before testing. The control group was provided with a corresponding vehicle. […] 15 minutes of forced swimming was performed a day before the experiment. On the day of the experiment, the animal was placed in the cylinder 60 minutes after the administration of the compound and was videotaped for 6 minutes. In the recorded videos, time during which the animal placed its head on the water and remained still without movement was measured based on the remaining 4 minutes excluding the first 2 minutes. It was evaluated that the lower the value of the immobile posture time, the greater the anti-depressant action (Reference; Porsolt R D, Le Pichon M. Jalfre M. 1997. Depression: a new animal model sensitive to antidepressant treatments. Nature. April 21; 266(5604):730-2.).
The result was shown as the standard error of measurement (SEM) of mean value t mean value. Behavioral data were analyzed by one-way ANOVA. For statistical significance, a value of <0.05 was taken (***p<0.001, **p=0.001˜0.01, *p=0.01˜0.05). Data management and statistics were performed using the Prism software of Windows version 4 (GraphPad Softward Co., San Diego, CA, USA).
Based on the results of Table 7, the ED50 value of the compound of Example 2 was calculated and shown in Table 7, and after 30 mg/kg and 60 mg/kg of the compounds of the other remaining examples were administered based on TD50 values to perform the forced swim tests, respectively, the administration doses with protected efficacy and protection % at the corresponding administration doses were shown in Table 7.

From patent US11896593B2, “Sulfamate derivative compounds for use in treating or alleviating a psychiatric disorder” (Bio-Pharm Solutions Co., Ltd., priority 2020, dated 2024) come the findings set out here.

SMILES strings stand for the structures. Marks after values point to notes of the source that are not given here.

As to `CC1(C)O[C@@H](COS(N)(=O)=O)[C@H](c2ccccc2Cl)O1` [Example 2, ((4S,5S)-5-(2-chlorophenyl)-2,2-dimethyl-1,3-dioxolan-4-yl)methyl sulfamate], the “Spontaneous momentum(cm)/10 minutes, Treatment” value in the assay with ICR male mice (intraperitoneal, 10 mg/kg) was determined as 5038.2 ± 455.9 cm/10 minutes; in the assay with ICR male mice (intraperitoneal, 30 mg/kg), 4249.4 ± 402.4 cm/10 minutes; with ICR male mice (oral, 10 mg/kg), 4997.3 ± 491.6 cm/10 minutes; in the assay on ICR male mice (oral, 30 mg/kg) it was 5033.5 ± 233.8 cm/10 minutes. Besides, the “Time of staying in central area (sec.)/10 minutes, Treatment” value came out at 31.6 ± 2.7 sec./10 minutes with ICR male mice (intraperitoneal, 10 mg/kg); 35.6 ± 3.1 sec./10 minutes in the assay on ICR male mice (intraperitoneal, 30 mg/kg); 36.6 ± 4.6 sec./10 minutes with ICR male mice (oral, 10 mg/kg); 44.7 ± 3.5 sec./10 minutes with ICR male mice (oral, 30 mg/kg). The “Immobile posture time (sec.)/4 minutes, Treatment” value in assay [1] was 5.07 sec./4 minutes; in the assay on Wistar male rats (5 mg/kg) it was 160.7 ± 3.8 sec./4 minutes; with Wistar male rats (10 mg/kg), 117.3 ± 12.2** sec./4 minutes; in the assay with Wistar male rats (20 mg/kg) it was 51.0 ± 11.6** sec./4 minutes. It took a dose of 13.3 mg/kg to reach the 50% effect level with Wistar male rats (rat forced swim test, po) (ED50).
